For 33 compounds, EC50 results are on record in US9469631B2 (Boehringer Ingelheim International GmbH, priority 2012, dated 2016).

human GPR119, sequence (Q8TDV5 whole entry): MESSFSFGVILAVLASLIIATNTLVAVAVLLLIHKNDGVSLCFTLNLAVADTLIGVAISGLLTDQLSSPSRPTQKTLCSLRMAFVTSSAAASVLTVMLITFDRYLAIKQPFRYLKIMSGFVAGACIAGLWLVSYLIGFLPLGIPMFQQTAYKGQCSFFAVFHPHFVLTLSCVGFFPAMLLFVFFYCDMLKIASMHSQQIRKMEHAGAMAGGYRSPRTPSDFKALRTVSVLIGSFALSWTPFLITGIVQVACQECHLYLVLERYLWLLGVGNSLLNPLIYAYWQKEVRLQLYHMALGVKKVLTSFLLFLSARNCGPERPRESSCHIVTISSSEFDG

The target of one assay is mutant form of the human GPR119 receptor (Homo sapiens (Human), UniProt Q8TDV5, S329A/T327A). The assay can be described thus: LANCE cAMP-384 assay in HEK293 cells stably expressing a mutant form of human GPR119. It counts as cell-based. As to conditions: 20 min at 37° C. (TR-FRET usually uses a lanthanide donor and a delayed reading to cut background.)
mutant form of the human GPR119 receptor, sequence (Q8TDV5 other isoform, or with tags, fused parts or gaps T327A/S329A): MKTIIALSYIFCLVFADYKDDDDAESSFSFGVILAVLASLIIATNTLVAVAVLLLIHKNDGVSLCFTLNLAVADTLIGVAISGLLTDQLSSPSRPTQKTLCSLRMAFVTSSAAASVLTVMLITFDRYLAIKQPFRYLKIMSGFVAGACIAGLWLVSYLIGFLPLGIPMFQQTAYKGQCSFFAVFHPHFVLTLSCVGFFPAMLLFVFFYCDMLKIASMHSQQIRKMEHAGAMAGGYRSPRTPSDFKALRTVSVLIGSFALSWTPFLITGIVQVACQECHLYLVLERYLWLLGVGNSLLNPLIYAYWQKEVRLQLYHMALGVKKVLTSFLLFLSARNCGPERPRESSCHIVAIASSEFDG
One may read the EC50 as the concentration that produces a half-maximal response. A higher EC50 goes with lower potency in that assay. With `CC(C)OC(=O)N1CC[C@@H](N(C(=O)c2ccc(-n3cncn3)c(F)c2)C2CC2)[C@@H](F)C1` (single isomer, unassigned) [Example 50], the EC50 is 1020 nM.
Same read-out and setting: for `CC(C)OC(=O)N1CC[C@H](N(C(=O)c2ccc(-n3cncn3)c(F)c2)C2CC2)[C@H](F)C1` (single isomer, unassigned) [Example 48] the value was 42 nM; for `CC(C)OC(=O)N1CCC(N(C(=O)c2ccc(-n3cncn3)c(F)c2)C2CC2)CC1` [Example 49, 4-[Cyclopropyl-(3-fluoro-4-[1,2,4]triazol-1-yl-benzoyl)-amino]-piperidine-1-carboxylic acid isopropyl ester], 338 nM.

The target in another assay is human GPR119 (Homo sapiens (Human), UniProt Q8TDV5). The assay can be described thus: AlphaScreen cAMP assay in MIN6 cells stably transfected with human GPR119. As to conditions: Min-6/hGPR119 cells, 45 min incubation at room temperature. It counts as cell-based. The method in brief:
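MIN6 cells stably expressing human GPR119 were seeded at 10000 cells/well for 24 h. Compounds were then applied in pH 7.4 buffer with 0.5 mM IBMX, 0.1% BSA and 1% DMSO for 45 min at about 20 °C. Intracellular cAMP was measured by AlphaScreen.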
(In general: Alpha assays give light when donor and acceptor beads are brought close together.)
On to `Cc1nnnn1-c1ccc(C(=O)N(C2CC2)C2CCN(C(=O)OC(C)(C)C)CC2)cc1` [Example 26, 4-{Cyclopropyl-[4-(5-methyl-tetrazol-1-yl)-benzoyl]-amino}-piperidine-1-carboxylic acid tert-butyl ester], for which the response was half-maximal at 224 nM (EC50).
On the same count and under the same terms, for `CC1(OC(=O)N2CCC(N(C(=O)c3ccc(-c4cnco4)cc3)C3CC3)CC2)CC1` [Example 20, 4-[Cyclopropyl-(4-oxazol-5-yl-benzoyl)-amino]-piperidine-1-carboxylic acid 1-methyl-cyclopropyl ester] the value was 52 nM; for `CNS(=O)(=O)c1ccc(-c2ccc(C(=O)N(C3CC3)C3CCN(C(=O)OC(C)(C)C)CC3)cc2)cc1` [Example 111, 4-[Cyclopropyl-(4′-methylsulfamoyl-biphenyl-4-carbonyl)-amino]-piperidine-1-carboxylic acid tert-butyl ester], 111 nM; for `CC(C)(C)OC(=O)N1CCC(N(C(=O)c2ccc(-c3nnc(N)s3)cc2)C2CC2)CC1` [Example 66, 4-{[4-(5-Amino-[1,3,4]thiadiazol-2-yl)-benzoyl]-cyclopropyl-amino}-piperidine-1-carboxylic acid tert-butyl ester], 875 nM.
The same measure, in the same setting: for `CC(C)(C)OC(=O)N1CCC(N(C(=O)c2ccc(-c3cnco3)c(N)c2)C2CC2)CC1` [Example 8, 4-[(3-Amino-4-oxazol-5-yl-benzoyl)-cyclopropyl-amino]-piperidine-1-carboxylic acid tert-butyl ester] the value was 169 nM; for `CC(C)(C)OC(=O)N1CCC(N(C(=O)c2ccc(-c3noc(Cc4ccccc4)n3)cc2)C2CC2)CC1` [Example 68, 4-{[4-(5-Benzyl-[1,2,4]oxadiazol-3-yl)-benzoyl]-cyclopropyl-amino}-piperidine-1-carboxylic acid tert-butyl ester], 192 nM; for `CN(C)C(=O)Nc1nc(-c2ccc(C(=O)N(C3CC3)C3CCN(C(=O)OC(C)(C)C)CC3)cc2)ns1` [Example 72, 4-(Cyclopropyl-{4-[5-(3,3-dimethyl-ureido)-[1,2,4]thiadiazol-3-yl]-benzoyl}-amino)-piperidine-1-carboxylic acid tert-butyl ester], 1170 nM.
Same read-out and setting: to `CN(C)c1ccc(-c2ccc(C(=O)N(C3CC3)C3CCN(C(=O)OC(C)(C)C)CC3)cc2)cn1` [Example 114, 4-{Cyclopropyl-[4-(6-dimethylamino-pyridin-3-yl)-benzoyl]-amino}-piperidine-1-carboxylic acid tert-butyl ester] belongs 229 nM; to `C=CCOC(=O)N1CCC(N(C(=O)c2ccc(-c3cnco3)cc2)C2CC2)CC1` [Example 127, 4-[Cyclopropyl-(4-oxazol-5-yl-benzoyl)-amino]-piperidine-1-carboxylic acid allyl ester], 102 nM; to `Cc1ncc(-c2ccc(C(=O)N(C3CC3)C3CCN(C(=O)OC(C)(C)C)CC3)cc2)o1` [Example 43, 4-{Cyclopropyl-[4-(2-methyl-oxazol-5-yl)-benzoyl]-amino}-piperidine-1-carboxylic acid tert-butyl ester], 149 nM.
Consider `CCOC(=O)c1c(C)nn(-c2ccc(C(=O)N(C3CC3)C3CCN(C(=O)OC(C)(C)C)CC3)cc2)c1C` [Example 79, 4-{Cyclopropyl-[4-(4-ethoxycarbonyl-3,5-dimethyl-pyrazol-1-yl)-benzoyl]-amino}-piperidine-1-carboxylic acid tert-butyl ester], for which the response was half-maximal at 1010 nM (EC50).
On the same count and under the same terms, to `O=C(OCC1CCOCC1)N1CCC(N(C(=O)c2ccc(-c3cnco3)cc2)C2CC2)CC1` [Example 14, 4-[Cyclopropyl-(4-oxazol-5-yl-benzoyl)-amino]-piperidine-1-carboxylic acid tetrahydro-pyran-4-ylmethyl ester] belongs 1080 nM.
Turning to `CC(C)(C)OC(=O)N1CCC(N(C(=O)c2ccc(-c3ccc(C(=O)O)nc3)cc2)C2CC2)CC1` [Example 115, 5-{4[(1-tert-Butoxycarbonyl-piperidin-4-yl)-cyclopropyl-carbamoyl]-phenyl}-pyridine-2-carboxylic acid], the EC50 stood at 1090 nM.
On the same count and under the same terms, for `CC(C)(C)OC(=O)N1CCC(N(C(=O)c2ccc(-c3ocnc3I)cc2)C2CC2)CC1` [Example 4, 4-{Cyclopropyl-[4-(4-iodo-oxazol-5-yl)-benzoyl]-amino}-piperidine-1-carboxylic acid tert-butyl ester] the value was 816 nM; for `Cc1c(-c2ccccc2)ncn1-c1ccc(C(=O)N(C2CC2)C2CCN(C(=O)OC(C)(C)C)CC2)cc1` [Example 83, 4-{Cyclopropyl-[4-(5-methyl-4-phenyl-imidazol-1-yl)-benzoyl]-amino}-piperidine-1-carboxylic acid tert-butyl ester], 291 nM.
The same measure, in the same setting: to `COC1CN(C(=O)OC(C)(C)C)CCC1N(C(=O)c1ccc(-c2cnco2)cc1)C1CC1` (stereo not drawn) [Example 45, 4-[Cyclopropyl-(4-oxazol-5-yl-benzoyl)-amino]-3-methoxy-piperidine-1-carboxylic acid tert-butyl ester] belongs 15 nM.
On the same count and under the same terms, to `CCOC(=O)N1CCC(N(C(=O)c2ccc(-c3cnco3)cc2)C2CC2)CC1` [Example 117, 4-[Cyclopropyl-(4-oxazol-5-yl-benzoyl)-amino]-piperidine-1-carboxylic acid ethyl ester] belongs 222 nM.
`CC1(OC(=O)N2CCC(N(C(=O)c3ccc(-c4ccc(S(C)(=O)=O)cn4)cc3)C3CC3)CC2)CC1` [Example 19, 4-{Cyclopropyl-[4-(5-methanesulfonyl-pyridin-2-yl)-benzoyl]-amino}-piperidine-1-carboxylic acid 1-methyl-cyclopropyl ester] came in with an EC50 of 1770 nM.
In turn, `COC(=O)c1ccc(-c2ccc(C(=O)N(C3CC3)C3CCN(C(=O)OC(C)(C)C)CC3)cc2)cn1` [Example 107, 5-{4-[(1-tert-Butoxycarbonyl-piperidin-4-yl)-cyclopropyl-carbamoyl]-phenyl}-pyridine-2-carboxylic acid methyl ester] returned an EC50 of 66 nM.
In turn, `CC(C)(C)OC(=O)N1CCC(N(C(=O)c2ccc(-c3nccs3)cc2)C2CC2)CC1` [Example 59, 4-[Cyclopropyl-(4-thiazol-2-yl-benzoyl)-amino]-piperidine-1-carboxylic acid tert-butyl ester] came in with an EC50 of 332 nM.
Still for that read-out and setting: to `Cc1cncnc1-c1ccc(C(=O)N(C2CC2)C2CCN(C(=O)OC(C)(C)C)CC2)cc1` [Example 27, 4-{Cyclopropyl-[4-(5-methyl-pyrimidin-4-yl)-benzoyl]-amino}-piperidine-1-carboxylic acid tert-butyl ester] belongs 469 nM; to `CC(C)(C)OC(=O)N1CCC(N(C(=O)c2ccc(-c3ccncc3)cc2)C2CC2)CC1` [Example 70, 4-[Cyclopropyl-(4-pyridin-4-yl-benzoyl)-amino]-piperidine-1-carboxylic acid tert-butyl ester], 41 nM.
On the same count and under the same terms, for `CC(C)(C)OC(=O)N1CCC(N(C(=O)c2cc(F)c(-c3cnco3)c(F)c2)C2CC2)CC1` [Example 33, 4-[Cyclopropyl-(3,5-difluoro-4-oxazol-5-yl-benzoyl)-amino]-piperidine-1-carboxylic acid tert-butyl ester] the value was 9 nM; for `CC(C)(C)OC(=O)N1CCC(N(C(=O)c2ccc(-c3cccnc3)cc2)C2CC2)CC1` [Example 75, 4-[Cyclopropyl-(4-pyridin-3-yl-benzoyl)-amino]-piperidine-1-carboxylic acid tert-butyl ester], 651 nM; for `COC(=O)N1CCC(N(C(=O)c2ccc(-c3cnco3)cc2)C2CC2)CC1` [Example 116, 4-[Cyclopropyl-(4-oxazol-5-yl-benzoyl)-amino]-piperidine-1-carboxylic acid methyl ester], 1570 nM.
The same measure, in the same setting: for `Cc1nc(-c2ccccc2)cn1-c1ccc(C(=O)N(C2CC2)C2CCN(C(=O)OC(C)(C)C)CC2)cc1` [Example 84, 4-{Cyclopropyl-[4-(2-methyl-4-phenyl-imidazol-1-yl)-benzoyl]-amino}-piperidine-1-carboxylic acid tert-butyl ester] the value was 96 nM.
Regarding `CC(C)(C)OC(=O)N1CCC(N(C(=O)c2ccc(-c3ccco3)cc2)C2CC2)CC1` [Example 65, 4-[Cyclopropyl-(4-furan-2-yl-benzoyl)-amino]-piperidine-1-carboxylic acid tert-butyl ester], the EC50 amounted to 659 nM.
Same read-out and setting: to `CC(C)(C)OC(=O)N1CCC(N(C(=O)c2c(F)cc(-c3cnco3)cc2F)C2CC2)CC1` [Example 36, 4-[Cyclopropyl-(2,6-difluoro-4-oxazol-5-yl-benzoyl)-amino]-piperidine-1-carboxylic acid tert-butyl ester] belongs 219 nM.
Same read-out and setting: for `Cc1noc(-c2ccc(C(=O)N(C3CC3)C3CCN(C(=O)OC(C)(C)C)CC3)cc2)n1` [Example 60, 4-{Cyclopropyl-[4-(3-methyl-[1,2,4]oxadiazol-5-yl)-benzoyl]-amino}-piperidine-1-carboxylic acid tert-butyl ester] the value was 347 nM; for `CCOc1ccc(-c2ccc(C(=O)N(C3CC3)C3CCN(C(=O)OC(C)(C)C)CC3)cc2)cn1` [Example 109, 4-{Cyclopropyl-[4-(6-ethoxy-pyridin-3-yl)-benzoyl]-amino}-piperidine-1-carboxylic acid tert-butyl ester], 316 nM.
